We go through one molecule from patent US11442059B2, “Method for treating a chronic itch condition by administering small molecule MrgprX4 antagonists” (The Johns Hopkins University, priority 2017, dated 2022).

The target of one experiment is MRGPRX4 (Homo sapiens, UniProt Q96LA9). Nature of the experiment: Cell membrane chromatography, MRGPRX4/CMC column. Format: binding. Also on record: expressed in transfected cells; whole cells or crude membrane fraction. How it is done:
CMC analysis was performed with a Shimadzu LC-2010A apparatus that consisted of pumps, degasser, autosampler, column oven, and a diode-array detector (Shimadzu, Kyoto, Japan). The data were acquired by the Lab-solution program (Shimadzu). The mobile phase consisted of phosphate-buffered saline (PBS; 5 mM, pH 7.4) and was delivered at a flow rate of 0.2 ml/min. The stock solutions (100 μM) of lamotrigine were prepared by separately dissolving the standard drugs in methanol. Standard solutions at various concentrations were prepared by diluting the stock solutions with the mobile phase. The MRGPRX2/CMC and MRGPRX4/CMC column was prepared as follows. Briefly, MRGPRX4-expressed HEK293 cells (1×10^8) were harvested and centrifuged (1000 g, 10 min, at 4° C.). Cells were washed with physiological saline (pH=7.4) by centrifugation at 1000 g for 10 min at 4° C. […] KD value of lamotrigine was determined by means of the MRGPRX4/CMC system as follows. […] This mobile phase with different concentrations of each compound was separately pumped through the MRGPRX4/CMC column at a flow rate of 0.2 ml min^−1 under the gradient program and the breakthrough curves of the compound with different concentrations were recorded. […] Moreover, KD could be determined by calculating the ratio of the intercept to the slope, and [R]s was obtained from the inverse of the intercept.

The subject of a further experiment is human dendritic cells. Nature of the experiment: Calcium imaging of human dendritic cells. The format is cell-based. The protocol:
In initial experiments, HEK293 cells were plated on 100 μg/ml poly-D-lysine coated glass cover slips, and transiently transfected with vector containing Mrgprs gene, after 24-48 hours of culture, cells were loaded with Fura 2-acetomethoxy ester calcium indicator (0.5 μM, Molecular Probes) along with pluronic F-127 dispersing agent (0.1%, Molecular Probes) for 30 minutes in the dark at 37° C., then washed with calcium imaging buffer (CIB; NaCl 125 mM, KCl 3 mM, CaCl2 2.5 mM, MgCl2 0.6 mM, HEPES 10 mM, glucose 20 mM, NaHCO3 1.2 mM, sucrose 20 mM, brought to pH 7.4 with NaOH). Drugs were added to Fura 2-loaded cells and intracellular free calcium was measured using 340 nm and 380 nm excitation wavelengths with emission measured at 520 nm with a microscope based imaging system (Nikon Eclipse TE200). Changes in emission fluorescence ratios at 340/380 nm excitation were continuously monitored at 1 second intervals. Later, experiments were performed using Mrgpra1-GFP, Mrgprc11-GFP and MRGPRX4-GFP stable cell lines to confirm the findings obtained from the transiently expressing cells.
Human Peripheral Blood Dendritic Cells from four different donors were purchased from Lonza (cc-2701) and […] Technologies (70041). […]

The next experiment concerns the target T1, Mrgprc11-GFP (Mus musculus, UniProt Q8CIP3).
T1 construct: expressed in transfected cells
T1 sequence (Q8CIP3 1-322): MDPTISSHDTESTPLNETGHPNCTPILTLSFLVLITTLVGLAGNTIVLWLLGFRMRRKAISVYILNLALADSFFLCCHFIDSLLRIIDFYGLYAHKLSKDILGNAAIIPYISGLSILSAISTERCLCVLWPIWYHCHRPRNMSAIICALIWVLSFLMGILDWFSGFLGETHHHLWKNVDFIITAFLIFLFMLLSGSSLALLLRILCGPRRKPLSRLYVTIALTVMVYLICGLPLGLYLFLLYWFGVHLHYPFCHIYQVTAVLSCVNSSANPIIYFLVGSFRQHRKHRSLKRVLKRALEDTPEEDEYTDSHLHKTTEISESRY
Description: Receptor internalization assay, Mrgprc11-GFP HEK293 cells. Format: cell-based. The conditions noted are these: data not shown. The protocol:
To label the drug with red-fluorescent dye, […] of LTG was dissolved in 50 μl dimethyformamide (DMF) first, and further diluted with 450 μl reaction buffer (0.1M sodium bicarbonate buffer, pH9.0) to obtain LTG at a concentration of 7.8 mM. Then, 50 μl of Texas-red-conjugated sulfonyl chloride (Thermo Fisher Scientific, T1905) dissolved in DMF at 10 mg ml−1 was slowly added into LTG solution. The reaction was incubated at 4° C. for 1 hour with continuous stirring. The mixture was then diluted into cell culture medium for further use. LTG labeled with Texas Red dye can create bright red-fluorescence with excitation/emission maxima ˜595/615 nm. HEK293 cells stably expressing Mrgpra1-GFP, Mrgprc11-GFP or MRGPRX4-GFP fusion protein were grown in DMEM with 10% FBS. After 4-6 hours of serum starvation, cells were treated with either medium, dye alone, unlabeled LTG or Texas-Red-labeled LTG at 37° C. for 15 or 60 min. Cells were washed with PBS and fixed with 4% paraformaldehyde in PBS. The subcellular localization of Mrgpr-GFP or drug was visualized under a confocal fluorescence microscope with a 400× magnification (Zeiss LSM 700).

SMILES strings stand for the structures.

Chain of MRGPRX4 (Q96LA9 whole entry): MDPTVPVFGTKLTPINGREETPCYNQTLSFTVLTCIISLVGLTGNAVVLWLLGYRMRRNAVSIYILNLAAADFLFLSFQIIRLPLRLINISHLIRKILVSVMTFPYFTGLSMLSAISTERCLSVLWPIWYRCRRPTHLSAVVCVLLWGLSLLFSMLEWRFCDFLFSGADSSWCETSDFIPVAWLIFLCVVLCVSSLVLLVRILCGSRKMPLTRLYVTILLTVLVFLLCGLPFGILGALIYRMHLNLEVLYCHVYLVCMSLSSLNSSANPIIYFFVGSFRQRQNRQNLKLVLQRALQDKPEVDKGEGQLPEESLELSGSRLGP

On to `Nc1nnc(-c2cccc(Cl)c2Cl)c(N)n1` [LTG, Lamotrigine], for which, on MRGPRX4 (affinity chromatography elution profile), the “Retention time on MRGPRX4/CMC column” value was determined as 16.7 min. Moreover, the Kd on MRGPRX4 (regression 1/[LR]s versus 1/[L]m, n=5, read-out: KD (MRGPRX4/CMC breakthrough curves)) was determined as 417 nM. The “cells activated (Ca2+ imaging)” value with human dendritic cells is listed as “about 5%”. In addition, the “internalization of Mrgprc11-GFP” value on Mrgprc11-GFP is given as “did not induce the internalization”.
